According to US20240116985A1, “STAPLED PEPTIDES AND METHODS THEREOF” (priority 2020, published 2024):
Converted amounts (≈) assume the structure as drawn.

Test: Solubility in PBS
Assay type: physicochemical
Conditions: not given
Method: After ultracentrifugation of the PBS solution, the supernatant was analyzed by HPLC and compared to an HPLC injection 50 μM peptide DMSO solution. Solubility was determined by: [(Area of PBS peak)/(Area of DMSO peak)]*50 uM.

Compound | Solubility [µM]
CC(=O)N1CCC[C@]12CC=CCCCC1(CCCC=CCCCOC(=O)N3CC[C@@](C(=O)N[C@@H](Cc4ccccc4)C(=O)N[C@@H](Cc4csc5ccccc45)C(=O)N[C@@H](CCC(N)=O)C(N)=O)(C3)NC(=O)[C@H](CC(C)C)NC(=O)[C@H](Cc3ccccc3)NC(=O)[C@H](C)NC(=O)[C@H](C)NC(=O)[C@H]([C@@H](C)O)NC(=O)[C@H](CC(=O)O)NC1=O)NC(=O)[C@H](C)NC(=O)[C@H](CC(N)=O)NC2=O (single isomer, unassigned) [I-1286, Ac-PL3-Asn-Ala-B5-Asp-Thr-Ala-Ala-Phe-Leu-PyrS2-Phe-BztA-Gln-NH2] | 10 (≈ 18.4 µg/mL)
CC(=O)N1CCC[C@]12CC=CCCCC1(CCCC=CCCCOC(=O)N3CC[C@@](C(=O)N[C@@H](Cc4ccccc4)C(=O)N[C@@H](Cc4csc5ccccc45)C(=O)N[C@@H](CCC(N)=O)C(N)=O)(C3)NC(=O)[C@H](CC(C)C)NC(=O)[C@H](Cc3ccccc3)NC(=O)[C@H](C)NC(=O)[C@H](C)NC(=O)[C@H]([C@@H](C)O)NC(=O)[C@H](CC(=O)O)NC1=O)NC(=O)[C@H](C)NC(=O)[C@H](CC(N)=O)NC2=O (single isomer, unassigned) [I-1287, Ac-PL3-Asn-Ala-B5-Asp-Thr-Ala-Ala-Phe-Leu-PyrS2-Phe-BztA-Gln-NH2] | 10 (≈ 18.4 µg/mL)
CC(=O)N1CCC[C@]12CC=CCCCC1(CCCC=CCCCOC(=O)N3CC[C@@](C(=O)N[C@@H](Cc4ccccc4)C(=O)N[C@@H](Cc4csc5ccccc45)C(=O)N[C@@H](CCC(N)=O)C(N)=O)(C3)NC(=O)[C@H](CC(C)C)NC(=O)[C@H](Cc3ccccc3)NC(=O)[C@H](C)NC(=O)[C@H](CCCCNC(C)C)NC(=O)[C@H]([C@@H](C)O)NC(=O)[C@H](CC(=O)O)NC1=O)NC(=O)[C@H](CC(C)(C)C)NC(=O)[C@H](CC(N)=O)NC2=O (single isomer, unassigned) [I-1289, Ac-PL3-Asn-Npg-B5-Asp-Thr-iPrLys-Ala-Phe-Leu-PyrS2-Phe-BztA-Gln-NH2] | 10 (≈ 20 µg/mL)
CC(=O)N1CCC[C@]12CC=CCCCC1(CCCC=CCCCOC(=O)N3CC[C@@](C(=O)N[C@@H](Cc4ccccc4)C(=O)N[C@@H](Cc4ccc5ccccc5c4)C(=O)N[C@@H](CCC(N)=O)C(N)=O)(C3)NC(=O)[C@H](CC(C)C)NC(=O)[C@H](Cc3ccccc3)NC(=O)[C@H](C)NC(=O)[C@H](C)NC(=O)[C@H]([C@@H](C)O)NC(=O)[C@H](CC(=O)O)NC1=O)NC(=O)[C@H](CC(C)(C)C)NC(=O)[C@H](CC(N)=O)NC2=O (single isomer, unassigned) [I-1291, Ac-PL3-Asn-Npg-B5-Asp-Thr-Ala-Ala-Phe-Leu-PyrS2-Phe-2NapA-Gln-NH2] | 10 (≈ 18.9 µg/mL)
CC(=O)N1CCC[C@]12CC=CCCCC1(CCCC=CCCCOC(=O)N3CC[C@@](C(=O)N[C@@H](Cc4ccccc4)C(=O)N[C@@H](Cc4ccc5ccccc5c4)C(=O)N[C@@H](CCC(N)=O)C(N)=O)(C3)NC(=O)[C@H](CC(C)C)NC(=O)[C@H](Cc3ccccc3)NC(=O)[C@H](C)NC(=O)[C@H](C)NC(=O)[C@H]([C@@H](C)O)NC(=O)[C@H](CC(=O)O)NC1=O)NC(=O)[C@H](CC(C)(C)C)NC(=O)[C@H](CC(N)=O)NC2=O (single isomer, unassigned) [I-1292, Ac-PL3-Asn-Npg-B5-Asp-Thr-Ala-Ala-Phe-Leu-PyrS2-Phe-2NapA-Gln-NH2] | 10 (≈ 18.9 µg/mL)
CC(=O)N1CCC[C@]12CC=CCCCC1(CCCC=CCCCOC(=O)N3CC[C@@](C(=O)N[C@@H](Cc4ccccc4)C(=O)N[C@@H](Cc4csc5ccccc45)C(=O)N[C@@H](CCC(N)=O)C(N)=O)(C3)NC(=O)[C@H](CC(C)C)NC(=O)[C@H](Cc3ccccc3)NC(=O)[C@H](C)NC(=O)[C@H](C)NC(=O)[C@H]([C@@H](C)O)NC(=O)[C@H](CC(N)=O)NC1=O)NC(=O)[C@H](C)NC(=O)[C@H](CC(=O)O)NC2=O (single isomer, unassigned) [I-1295, Ac-PL3-Asp-Ala-B5-Asn-Thr-Ala-Ala-Phe-Leu-PyrS2-Phe-BztA-Gln-NH2] | 10 (≈ 18.4 µg/mL)
CC(=O)N1CCC[C@]12CC=CCCCC1(CCCC=CCCCOC(=O)N3CC[C@@](C(=O)N[C@@H](Cc4ccccc4)C(=O)N[C@@H](Cc4csc5ccccc45)C(=O)N[C@H](C(N)=O)[C@@H](C)O)(C3)NC(=O)[C@H](CC(C)C)NC(=O)[C@H](Cc3ccccc3)NC(=O)[C@H](C)NC(=O)[C@H](C)NC(=O)[C@H]([C@@H](C)O)NC(=O)[C@H](CC(N)=O)NC1=O)NC(=O)[C@H](CC(C)(C)C)NC(=O)[C@H](CC(=O)O)NC2=O (single isomer, unassigned) [I-1299, Ac-PL3-Asp-Npg-B5-Asn-Thr-Ala-Ala-Phe-Leu-PyrS2-Phe-BztA-Thr-NH2] | 10 (≈ 18.7 µg/mL)
CC(=O)N1CCC[C@]12CC=CCCCC1(CCCC=CCCCOC(=O)N3CC[C@@](C(=O)N[C@@H](Cc4ccccc4)C(=O)N[C@@H](Cc4csc5ccccc45)C(=O)N[C@H](C(N)=O)[C@@H](C)O)(C3)NC(=O)[C@H](CC(C)C)NC(=O)[C@H](Cc3ccccc3)NC(=O)[C@H](C)NC(=O)[C@H](C)NC(=O)[C@H]([C@@H](C)O)NC(=O)[C@H](CC(N)=O)NC1=O)NC(=O)[C@H](CC(C)(C)C)NC(=O)[C@H](CC(=O)O)NC2=O (single isomer, unassigned) [I-1300, Ac-PL3-Asp-Npg-B5-Asn-Thr-Ala-Ala-Phe-Leu-PyrS2-Phe-BztA-Thr-NH2] | 10 (≈ 18.7 µg/mL)
CC(=O)N1CCC[C@]12CC=CCCCC1(CCCC=CCCCOC(=O)N3CC[C@@](C(=O)N[C@@H](Cc4ccsc4)C(=O)N[C@@H](Cc4csc5ccccc45)C(=O)N[C@@H](CCC(N)=O)C(N)=O)(C3)NC(=O)[C@H](CC(N)=O)NC(=O)[C@H](Cc3ccccc3)NC(=O)[C@H](C)NC(=O)[C@H](C)NC(=O)[C@H](CC(=O)O)NC(=O)[C@H](CCN)NC1=O)NC(=O)[C@H](CC(C)(C)C)NC(=O)[C@H](CC(=O)O)NC2=O (stereo partly drawn) [I-1216, Ac-PL3-Asp-Npg-B5-Dab-Asp-Ala-Ala-Phe-Asn-PyrS2-3Thi-BztA-Gln-NH2] | 10 (≈ 19 µg/mL)
CC(=O)N1CCC[C@]12CC=CCCCC1(CCCC=CCCCOC(=O)N3CC[C@@](C(=O)N[C@@H](Cc4ccccc4)C(=O)N[C@@H](Cc4cccc5ccccc45)C(=O)N[C@@H](CCC(N)=O)C(N)=O)(C3)NC(=O)[C@H](CC(C)C)NC(=O)[C@H](Cc3ccccc3)NC(=O)[C@H](C)NC(=O)[C@H](C)NC(=O)[C@H]([C@@H](C)O)NC(=O)[C@H](CC(=O)O)NC1=O)NC(=O)[C@H](CC(C)(C)C)NC(=O)[C@H](CC(N)=O)NC2=O (stereo partly drawn) [I-1290, Ac-PL3-Asn-Npg-B5-Asp-Thr-Ala-Ala-Phe-Leu-PyrS2-Phe-1NapA-Gln-NH2] | 10 (≈ 18.9 µg/mL)

Same assay, conditions: Solubility (uM)

Compound | solubility at 15 min [µM]
CC(=O)N1CCC[C@]12CC=CCCCC1(CCCC=CCCCOC(=O)N3CC[C@@](C(=O)N[C@@H](Cc4ccsc4)C(=O)N[C@@H](Cc4csc5ccccc45)C(=O)N[C@@H](CCC(N)=O)C(N)=O)(C3)NC(=O)[C@H](CC(C)C)NC(=O)[C@H](Cc3ccccc3)NC(=O)[C@H](C)NC(=O)[C@H](C)NC(=O)[C@H](CC(=O)O)NC(=O)[C@H](CCN)NC1=O)NC(=O)[C@H](CC(C)(C)C)NC(=O)[C@H](CC(=O)O)NC2=O (stereo partly drawn) [I-1217, Ac-PL3-Asp-Npg-B5-Dab-Asp-Ala-Ala-Phe-Leu-PyrS2-3Thi-BztA-Gln-NH2] | 15 (≈ 28.5 µg/mL)
